# From patent US9957209B2, “Use of quinone methides as antipolymerants for vinylic monomers” (Ecolab USA Inc., priority 2015, dated 2018)
# Assay: Static antipolymerant screening: polystyrene formed in heated, inhibitor-free styrene (ASTM D2121 methanol precipitation, absorbance at 420 nm)
# Details: 0.33 mmolal antipolymerant in styrene, 122° C., anaerobic
# Description: The antipolymerant performance of the isolated cinnamyl quinone methide, 2,6-di-tert-butyl-4-(3-phenylallylidene)cyclohexa-2,5-dienone (7-Cinn-QM), was determined using the static method whereby a 0.31 mM (0.33 mmolal) solution of the retarder was prepared in inhibitor-free styrene. To start with, 4-tert-butylcatechol (TBC) was removed by eluting styrene through alumina. To prepare a 0.31 mM solution of 7-Cinn-QM, 0.0264 g were dissolved in freshly de-inhibited styrene to give a solution of 250 grams. Into twenty-four Ace Glass #15 threaded pressure tubes equipped with PTFE screw caps and fluoroelastomer (FETFE) O-rings, 9 mL of the solution were charged into each tube. To purge as much oxygen out of the solutions as possible, each solution was sparged with nitrogen for 2 minutes. Immediately after sparging each solution, the tube was sealed and the solution kept under a nitrogen gas overhead. […] After 30 minutes, and every 15 minutes thereafter, four tubes were retrieved from the block and the polymerization reaction quenched by cooling in an ice bath. The cooled polymer solutions were immediately diluted with toluene.
# To measure the amount of polymer formed, methanol was used to precipitate the polymer in accordance with the ASTM D2121 method. The absorbance of the polymer-methanol admixtures were measured at 420 nm. Using a calibration curve, the polymer concentrations in each of the tubes was measured and the four data points for each time were averaged.
# For comparative purpose, 0.0243 g of 7-Ph-QM were dissolved in 350 g of inhibitor-free styrene after which the antipolymerant performance was tested according to the procedure in Example 3.
# Similarly, a styrene solution comprising 0.155 mmolal of 7-Ph-QM and 0.155 mmolal of 7-Cinn-QM was used to screen the performance of the combination in accordance with the procedure in Example 3.
Compound,Polystyrene (%) (Time 30),Polystyrene (%) (Time 45),Polystyrene (%) (Time 60),Polystyrene (%) (Time 75),Polystyrene (%) (Time 90),Polystyrene (%) (Time 105),Polystyrene (%) (Time 120),Polystyrene (%) (Time 135)
7-Phenyl Quinone Methide [7-Ph-QM],0.13%,0.49%,0.89%,1.08%,1.37%,1.56%,2.4%,3.4%
"CC(C)(C)C1=CC(=CC=Cc2ccccc2)C=C(C(C)(C)C)C1=O [7-Cinn-QM, 2,6-di-tert-butyl-4-(3-phenylallylidene)cyclohexa-2,5-dienone]",0.05%,0.20%,0.41%,0.88%,1.54%,3.39%,5.13%,7.07%
